The values that follow come from ChEMBL document CHEMBL3046709, “Substituted aminoalcohol ester analogs of indomethacin with reduced toxic effects” (Med Chem Res, 2007).

Counter-ions that a name gives are not always drawn.

The inhibition in vivo is the drop in the measured response relative to a control, in per cent. Broadly, the half-life is how long it takes for the measured level to halve. A higher half-life goes with slow decline.

One data set deals with Mus musculus. As to the kind of experiment: Analgesic activity in Mus musculus (mouse) assessed as inhibition of acetic acid-induced writhing at 15 mg/kg, po administered 1 hr prior to acetic acid challenge measured at 5 to 20 min relative to control. The data set is classed as functional. For orientation: Writhing tests count abdominal constrictions after an irritant is injected.

Data set [1] concerns Rattus norvegicus. As to the kind of experiment: Anti-inflammatory activity in Rattus norvegicus Sprague-Dawley (rat) assessed as inhibition of carrageenan-induced paw edema at 3 mg/kg, po administered 1 hr prior to carrageenan-challenge measured after 3 hr by plethysmometric analysis relative to control. The data set is classed as functional.
For data set [2], the system named is Rattus norvegicus. Kind of data set: Anticholinergic activity in po dosed overnight fasted Rattus norvegicus (rat) ileum. The data set is classed as functional. Conditions: read-out: pA2 (converted).
Data set [3] concerns Rattus norvegicus. Kind of data set: Ulcerogenic activity in 36 hr fasting Rattus norvegicus Sprague-Dawley (rat) stomach assessed as ulcer index at 25 mg/kg, po measured after 4 hr. In kind it is toxicity, organism-based. Also noted: dose 25 mg/kg, route oral. To be noted: in vivo.
Data set [4] in a line: Half life in aqueous buffer at 1 mg/ml at pH 7.4 measured for 6 hr. The data set is classed as ADME.

On to `CCN(CC)CCOC(=O)Cc1c(C)n(C(=O)c2ccc(Cl)cc2)c2ccc(OC)cc12`, for which, in the data set on Mus musculus, the inhibition in vivo at 15 mg/kg came out at 23%. Moreover, in the data set on Rattus norvegicus [1], the inhibition in vivo at 3 mg/kg was found to be 34.6%. In addition, the Kb with Rattus norvegicus [2] was 32.4 µM. In addition, the UI in the data set with Rattus norvegicus [3] is 0.317. In addition, in data set [4], the half-life at 1 mg/ml is 39 h.

As for `COc1ccc2c(c1)c(CC(=O)OCCN1CCOCC1)c(C)n2C(=O)c1ccc(Cl)cc1`, the inhibition in vivo at 15 mg/kg with Mus musculus was 35.5%. Further, the inhibition in vivo at 3 mg/kg with Rattus norvegicus [1] was determined as 23.1%. Further, the Kb in the data set on Rattus norvegicus [2] was 6.92 µM. The UI with Rattus norvegicus [3] stood at 0.259. The half-life at 1 mg/ml in data set [4] is 52 h.

As for `COc1ccc2c(c1)c(CC(=O)OCCN1CCCC1)c(C)n2C(=O)c1ccc(Cl)cc1`, in the data set on Mus musculus, the inhibition in vivo at 15 mg/kg came out at 37.2%. Moreover, the inhibition in vivo at 3 mg/kg in the data set with Rattus norvegicus [1] was found to be 37.5%. For the same compound, the Kb in the data set with Rattus norvegicus [2] was 12 µM. For the same compound, in the data set with Rattus norvegicus [3], the UI is 0.341. In addition, in data set [4], the half-life at 1 mg/ml was 99 h.

As for `CN1C2CCC1CC(OC(=O)C(CO)c1ccccc1)C2` (stereo not drawn) [ENDO-ATROPINE SULFATE], the Kb in the data set on Rattus norvegicus [2] is 0.00631 µM.

Take `COc1ccc2c(c1)c(CC(=O)O)c(C)n2C(=O)c1ccc(Cl)cc1` [INDOMETHACIN]: the inhibition in vivo at 15 mg/kg with Mus musculus stood at 42.1%. The inhibition in vivo at 3 mg/kg in the data set with Rattus norvegicus [1] amounted to 45.4%. Moreover, the UI with Rattus norvegicus [3] was 0.547.

`COc1ccc2c(c1)c(CC(=O)OCCN1CCCCC1)c(C)n2C(=O)c1ccc(Cl)cc1`: the inhibition in vivo at 15 mg/kg with Mus musculus was 35%. Also, the inhibition in vivo at 3 mg/kg in the data set on Rattus norvegicus [1] was 16.6%. For the same compound, the Kb in the data set on Rattus norvegicus [2] was 9.12 µM. For the same compound, the UI with Rattus norvegicus [3] was 0.134. Besides, in data set [4], the half-life at 1 mg/ml is 66 h.

For the compound `COc1ccc2c(c1)c(CC(=O)OCCN(C)C)c(C)n2C(=O)c1ccc(Cl)cc1`, in the data set on Mus musculus, the inhibition in vivo at 15 mg/kg is 39.9%. For the same compound, in the data set with Rattus norvegicus [1], the inhibition in vivo at 3 mg/kg was 46.7%. The Kb in the data set with Rattus norvegicus [2] is 6.46 µM. Further, in the data set on Rattus norvegicus [3], the UI turned out to be 0.149. For the same compound, the half-life at 1 mg/ml in data set [4] was 34 h.
